Test results: US20240423941A1, “MEDIUM CHAIN DICARBOXYLIC ACIDS FOR THE TREATMENT AND PREVENTION OF DISEASES AND CONDITIONS” (University of Pittsburgh - Of the Commonwealth System of …, priority 2021, published 2024)
Entries after “also recorded” stand apart in the source; their conditions may differ.

Experiments:
[1] = test system: lysine succinylation (Suc-Lys) PTMs; test: Western blotting of lysine succinylation in tissues of mice fed dicarboxylic acids; assay type: in vivo, wildtype C57Bl/6 mice; settings: for lysine succinylation (Suc-Lys) PTMs in kidney / lysine succinylation (Suc-Lys) PTMs in liver: fed 10% w/w for 7 days
From the text: FIGS. 1A-1C. Feeding mice DCAs causes a dramatic shift in the post-translational modification (PTM) landscape. […] ND=normal diet. FIG. 1B) Mice were fed 10% DC12 for 0 to 7 days; some mice underwent a 7-day “washout” after 7 days on DC12.
FIG. 6. DC8 causes robust kidney specific succinylation. DC8, DC10 and DC12 were fed to wild-type mice at 10% w/w for 7 days.
(§1) We hypothesized that peroxisomes can chain-shorten DC12 as far as DC4-CoA, also known as succinyl-CoA. Such a mechanism would be predicted to 1) result in protein succinylation in the peroxisome, due to the known high chemical reactivity between lysine residues and succinyl-CoA; and 2) “feed” the mitochondrial TCA cycle with the products of DC12 chain-shortening, namely 2-carbon units (acetate) and succinate. We fed wildtype C57Bl/6 mice DC12 mixed into the diet and measured protein succinylation as a proxy for succinyl-CoA formation. […] The succinylation is seen to arise within 1 day and becomes maximal at 7 days (FIG. 1B). The effect is reversible when the diet is removed. DC12 degradation also produces acetyl-CoA. […] Like succinyl-CoA, glutaryl-CoA (DC5-CoA) is also highly reactive.
DC8 induces high-level, kidney-specific protein succinylation. […] Potential side effects caused by liver metabolization can be avoided, and the liver is not reducing the available agent.

[2] = test system: unilateral ureteral obstruction (UUO); test: Unilateral ureteral obstruction (UUO) model of interstitial fibrosis; assay type: in vivo; settings: DC8 fed versus control fed diet
From the text: FIG. 14. DC8 treatment was also protective against a chronic kidney disease model of interstitial fibrosis. As was evidenced in the control fed diet 14A and A′ when the kidney was subjected to unilateral ureteral obstruction (UUO) that there was a significant amount of trichrome positive fibrosis in the interstitium (blue).

[3] = test system: ischemic AKI; test: Unilateral ischemic kidney injury (ischemic AKI); assay type: in vivo, male mice; settings: for BUN / kidney damage by H & E staining (dilated tubules, proteinaceous casts) / serum creatinine: diet-fed versus normal diet; for expression of the injury marker NGAL in proximal tubules: immunostaining
From the text: FIG. 3. DC12 treatment mitigates ischemic kidney injury. Normal diet or DC12-fed male mice were subjected to ischemic AKI. […] Tubular dilation (arrows), debris, or proteinaceous casts are indicated (*). […] E,F) DC12-fed mice had lower serum creatinine and BUN, which are markers of kidney dysfunction. *p<0.05.
FIGS. 7A-7F. […] Normal diet or DC8-fed male mice were subjected to ischemic AKI. […] Tubular dilation (arrows), debris, or proteinaceous casts are indicated (*). […] FIGS. 7E,7F) DC8-fed mice had lower serum creatinine and BUN, which are markers of kidney dysfunction. ****p<0.0001.
DC12 is renoprotective. […] To test this, mice that had been fed ±10% DC12 for 7 days were subjected to unilateral ischemic kidney injury. In this model, the uninjured contralateral kidney is removed on Day 6 post-injury and used as control tissue, and the injured kidneys are collected one day later for analysis. The diet was continued during the 6-day recovery period post-injury, as well as after removing the contralateral kidney.
(§2) The effect of DC8 in ischemic AKI was also tested.

[4] = test system: long-chain acyl-CoA dehydrogenase (LCAD) knockout mice; test: LCAD knockout mice, model of mitochondrial long-chain fatty acid oxidation disorders; assay type: in vivo
From the text: FIG. 11A-11E. DC12 and DC10 improve functioning in long-chain acyl-CoA dehydrogenase (LCAD) knockout mice, a mouse model of mitochondrial long-chain fatty acid oxidation disorders.

[5] = test system: lysine glutarylation (Glu-Lys); test: Western blotting of lysine glutarylation in mice fed DC11; assay type: in vivo; settings: 10% w/w for 7 days
[6] = test system: cisplatin kidney injury; test: Nephrotoxic (cisplatin) model of AKI; assay type: in vivo, male 129 WT mice
Description: FIGS. 5A-5B. DC12 treatment mitigates cisplatin kidney injury. Normal diet or DC12-fed (7 days pre-treatment+3 days post-treatment) male 129 WT mice were injected i.p. with 18 mg/kg cisplatin and sacrificed at day 3. (FIG. 5A) Reduction of serum bicarbonate by cisplatin-AKI was mitigated in DC12 treated mice. (FIG. 5B) Renal tubular injury by cisplatin is mitigated in DC12 treated mice. Magnified images for dotted boxed areas are shown. Tubular dilation, debris, or proteinaceous casts are indicated(*) n=6-7, mean±SEM, t-test, *p<0.05, Scale bars: 50 um
We also conducted a nephrotoxic model of AKI (cisplatin).
as §2

[7] = Body weight, food intake, grip strength and body composition (EchoMRI) in DC12-fed mice; assay type: in vivo
Description: FIGS. 8A-8G. […] FIG. 8A, 8B) Mice were fed DC12 for 5 weeks. Body weight and food weights were measured 3 times per week. […] Forelimb peak force was measured with a grip strength meter and normalized to body weight.

[8] = test system: lysine succinylation in liver peroxisomes; test: Lysine succinylation in liver peroxisomes and homogenates of WT versus Sirt5KO mice fed DC12; assay type: in vivo
From the text: FIGS. 2A-2C. […] FIG. 2A) Livers from N=3 mice fed DC12 for 7 days, separated by Histodenz gradient centrifugation to yield pure peroxisomes and blotted with anti-succinyllysine (SucLys). ND lanes=one control mouse of each genotype fed normal diet. Peroxisome fraction is positive for peroxisome marker PMP70 but negative for mitochondrial Tim23 except for WT sample #2 which had minor mitochondrial contamination. FIG. 2B) Densitometry from panel (FIG. 2A) showing total SucLys signal normalized to PMP70. FIG. 2C) Liver homogenates from normal diet (ND) and Sirt5KO mice (N=4) were subjected to quantitative site-level mass spectrometry for succinylated peptides. The Y-axis is Log 2 fold-change for each peptide relative to wild-type (WT) on ND. Each dot is an individual peptide.
An important question was whether Sirt5, a deacylase that can reverse succinylation and glutarylation, would offset and reverse the effects of feeding DCAs.

[9] = test system: metformin overdose; test: Metformin overdose (lactic acidosis); assay type: in vivo, mice
Description: (§3) FIGS. 10A-10D. DC12 protects against lactic acidosis. Wildtype mice were maintained on DC12 diet for 7 days, then run on a treadmill to exhaustion. […] Then, mice fed DC12 were tested for protection against metformin overdose, which is clinically known to induce a lethal lactic acidosis. After a single 400 mg/kg dose of metformin, 9/11 mice on control diet died, while 0/12 mice on DC12 diet died (FIG. 10B).

[10] = Indirect calorimetry (CLAMS) in DC12-fed mice; assay type: in vivo
From the text: FIGS. 9A-9D. DC12 increases whole-body energy expenditure and respiratory exchange ratio. Indirect calorimetry indicated increased whole-body respiration as measured in the CLAMS apparatus over 72 hrs, for both oxygen consumed (FIG. 9A) and carbon dioxide produced (FIG. 9B). […] The calculated energy expenditure in the DC12 group was higher (FIG. 9D).

[11] = Treadmill run to exhaustion, blood lactate; assay type: in vivo, wildtype mice; settings: DC12 diet for 7 days
Description: as §3

[12] = test system: lysine succinylation PTMs in kidney; test: Quantitative mass spectrometry of contralateral and injured kidneys (AKI ± DC12); assay type: in vivo, mice
From the text: FIGS. 4A-4C. Effects of injury and DC12 on protein succinylation PTMs. N=4 mice were subjected to AKI±7 days of 10% DC12. Contralateral (non-injured kidneys) served as control. Quantitative mass spectrometry was used to profile lysine succinylation PTMs at the protein and site-level. […] FIG. 4C) Succinylation of individual lysine-containing peptides from four key peroxisomal proteins, normalized to control diet non-injured levels.
Portions of contralateral control kidney and injured kidney were used for quantitative mass spectrometry, to measure both total protein abundance and site-level changes in lysine succinylation.

[13] = test system: protein acetylation; test: Protein acetylation with pan anti-acetyllysine antibody in DC12-fed mice; assay type: in vivo
From the text: as §1

O=C(O)CCCCCCC(=O)O [DC8, octanedioic acid]
lysine succinylation (Suc-Lys) PTMs in kidney ([1]; western blotting): dramatic increase; also recorded: stronger protein succinylation
lysine succinylation (Suc-Lys) PTMs in liver ([1]; western blotting): not the liver
interstitial fibrosis (trichrome) [2]: dramatically decreased
kidney function ([3]; after ischemic injury): dramatically improved
BUN [3]: lower
kidney damage by H & E staining (dilated tubules, proteinaceous casts) [3]: reduced kidney damage; also recorded: marked reduction in kidney damage
serum creatinine [3]: lower
expression of the injury marker NGAL in proximal tubules [3]: markedly reduced

O=C(O)CCCCCCCCC(=O)O [DC10, decanedioic acid]
lysine succinylation (Suc-Lys) PTMs in kidney ([1]; western blotting): large increase; also recorded: stronger protein succinylation
lysine succinylation (Suc-Lys) PTMs in liver ([1]; western blotting): moderate upregulation
blood lactate after acute exercise stress test on a treadmill ([4]; single dose): significantly lowered

O=C(O)CCCCCCCCCC(=O)O [DC11, undecanedioic acid]
lysine glutarylation (Glu-Lys) in liver and kidney [5]: massive increase; also recorded: high-level protein glutarylation

O=C(O)CCCCCCCCCCC(=O)O [DC12, dodecanedioic acid]
reduction of serum bicarbonate by cisplatin-AKI ([6]; 18 mg/kg cisplatin i.p., day 3): mitigated; also recorded: improved functionality
renal tubular injury by cisplatin (histology) ([6]; 18 mg/kg cisplatin i.p., day 3): mitigated; also recorded: less structural damage
protection against injury in cisplatin model ([6]; mouse, in vivo): protected against injury
fat mass ([7]; 5 weeks or 9 weeks, EchoMRI): reduces fat mass
lean mass ([7]; 5 weeks or 9 weeks, EchoMRI): not altering lean mass
liver fat (triacylglycerol, TAG) ([7]; at sacrifice): also reduced
mass of the intra-abdominal fat pad (epididymal) ([7]; at sacrifice): significantly reduced
body weight ([7]; fed DC12 for 5 weeks): reduced body weight
food intake ([7]; fed DC12 for 5 weeks): without changing food intake
muscle strength (forelimb peak force normalized to body weight) ([7]; grip strength meter): does not reduce muscle strength
reversibility of succinylation ([1]; 7-day washout after 7 days on DC12): reversible
time at which succinylation becomes maximal ([1]; 10% DC12 for 0 to 7 days): 7 days
time for succinylation to arise ([1]; 10% DC12 for 0 to 7 days): ≤ 1 days
succinylation in muscle, heart, and brain ([1]; DC12 mixed into the diet, western blotting): no change
lysine succinylation (Suc-Lys) PTMs in kidney ([1]; western blotting): massive increase; also recorded: moderate increase; also recorded: massive upregulation
lysine succinylation (Suc-Lys) PTMs in liver ([1]; western blotting): massive increase; also recorded: large increase; also recorded: massive upregulation; also recorded: strongest protein succinylation
lysine succinylation in liver peroxisomes, WT versus Sirt5-/- ([8]; 10% DC12 for 7 days, anti-succinyllysine blot): equal lysine succinylation
succinylated peptides, fold-change relative to WT on normal diet ([8]; liver, quantitative mass spectrometry): very high fold-changes in succinylation in both genotypes; also recorded: increases lysine succinylation dramatically
fasting glucose ([4]; two weeks on 10% DC12 diet): improved
forelimb grip strength ([4]; two weeks on 10% DC12 diet): improved
spontaneous locomotion ([4]; two weeks on 10% DC12 diet): improved
time spent resting ([4]; two weeks on 10% DC12 diet): less
blood glucose levels relative to control ([9]; 2 hr post-metformin injection): twice as high as control
lactate levels, lower than control ([9]; 2 hr post-metformin injection): 50%
mice that died ([9]; single 400 mg/kg dose of metformin): 0/12
whole-body respiration, carbon dioxide produced ([10]; CLAMS over 72 hrs): increased
whole-body respiration, oxygen consumed ([10]; CLAMS over 72 hrs): increased
respiratory exchange ratio (RER) ([10]; dark period): shift toward a higher RER
calculated energy expenditure ([10]; mouse, in vivo): higher
blood lactate at exhaustion [11]: significantly reduced
lysine succinylation in kidney ([12]; 7 days of 10% DC12, quantitative mass spectrometry): massively increased; also recorded: massive effects
succinylation level of kidney peroxisomal proteins ([12]; compared to baseline (contralateral)): greatly increased
protein expression in kidney ([12]; total protein abundance, quantitative mass spectrometry): very minimal if any effect
BUN [3]: lower; also recorded: significantly reduced
kidney damage by H & E staining (dilated tubules, proteinaceous casts) [3]: reduced kidney damage; also recorded: reduced the number of dilated tubules and proteinaceous casts
serum creatinine [3]: lower; also recorded: significantly reduced
expression of the injury marker NGAL in proximal tubules [3]: markedly reduced; also recorded: less induction
protein acetylation [13]: no changes were observed
